The record followed here is patent publication US5369096A, “Glycolipid derivatives” (The Nisshin Oil Mills, Ltd., priority 1992, dated 1994).

In test [1] the test system is HL-60 cells adhering to vascular endothelial cells of the normal human umbilical cord. In words: inhibition of adhesion of HL-60 cells to rhIL1β-stimulated vascular endothelial cells, liposome dispersion. The following applies: 20 μg/ml equivalent; for Amount of HL-60 cancer cells adhered (fluorescence intensity): rhIL1β 200 U/ml, 485 nm/535 nm. It counts as cell-based. The procedure:
(§1) A solution of 200 μg of phosphatidylcholine, 100 μg of cholesterol, 7.5 μg of dicetyl phosphate and 50 μg of a compound of the invention in a mixture of chloroform/methanol=2/1 (ca. 1 ml) was evaporated under reduced pressure to dryness followed by addition of 0.25 ml of a phosphate-buffered saline solution. The mixture was ultrasonicated (an output of 90 watts) for 5 min. and stirred (a vortex mixer) for 5 min. to form a liposome dispersion.
(§2) Vascular endothelial cells of the normal human umbilical cord grown to confluence were stimulated in 24-well plates with 200 U/ml of recombinant interleukin 1β (called hereafter rhIL1β, manufactured by Genzyme) at 37° C. for 4 hours. After removal of the supernatant by suction, liposome dispersions each prepared from a compound of the invention in an amount of 20 μg/ml equivalent were added except for the rhIL1β-untreated group (sample 1) and the treated groups (samples 2 and 3). The mixtures were then allowed to react at room temperature for 30 min. Subsequently, promyelocytic leukemia cell line HL-60 with 2',7'-bis(carboxyethyl)-5,6-carboxyfluorescene acetoxymethyl ester fluorescent dye enclosed was added at a level of 1×10^6 cells per well followed by centrifugal operation at 100 rpm for 20 min. Each well was washed three times followed by addition of 0.5 ml of 0.5% Triton X-100 and stirring. The contents were divided into 100 μl portions in 96-well plates and measurement was made on a Baxter fluorometer at 485 nm/535 nm.
4: rhIL1β-treated group+compound 5A-containing liposome dispersion-treated group (2EG)*
5: rhIL1β-treated group+compound 5B-containing liposome dispersion-treated group (3EG)*
6: rhIL1β-treated group+compound 5C-containing liposome dispersion-treated group (4EG)*
7: rhIL1β-treated group+compound 5D-containing liposome dispersion-treated group (5EG)*
* 2EG, 3EG, 4EG or 5EG represents a compound of the invention containing 2, 3, 4 or 5 CH2 CH2 O units, respectively. The same shall apply hereinafter.
% Inhibition of adhesion=100-[(fluorescence intensity for rhIL1β-treated group+compound-free or a compound-containing liposome dispersion-treated group)-(fluorescence intensity for rhIL1β-untreated group)/(fluorescence intensity for rhIL1β-treated group-fluorescence intensity for rhIL1β-untreatedgroup)]×100

Test [2] concerns human normal lymphocytes adhering to vascular endothelial cells of the normal human umbilical cord. In words: inhibition of adhesion of human normal lymphocytes to rhIL1β-stimulated vascular endothelial cells, liposome dispersion. The following applies: 20 μg/ml equivalent; for Amount of human normal lymphocytes adhered (fluorescence intensity): rhIL1β 200 U/ml, 485 nm/535 nm. Type of test: cell-based. The procedure: as §1
as §2, with “of rhIL1β” for “of recombinant interleukin 1β (called hereafter rhIL1β, manufactured by Genzyme)”, “Subsequently, human normal lymphocytes” for “Subsequently, promyelocytic leukemia cell line HL-60”, “with 2',7'-bis-(carboxyethyl)-5,6-carboxyfluorescene” for “with 2',7'-bis(carboxyethyl)-5,6-carboxyfluorescene”, “of 2×10^6” for “of 1×10^6”, “Each hole” for “Each well”
4: rhIL1β-treated group+compound 5A-containing liposome dispersion-treated group (2EG)
5: rhIL1β-treated group+compound 5B-containing liposome dispersion-treated group (3EG)
6: rhIL1β-treated group+compound 5C-containing liposome dispersion-treated group (4EG)
7: rhIL1β-treated group+compound 5D-containing liposome dispersion-treated group (5EG)
Amount adhered and % inhibition of adhesion of human normal lymphocytes as measured from fluorescence intensity are shown in Table 4 below.

Turning to `CCCCCCCCCCCCCCC(CCCCCCCCCCCCCC)C(=O)Nc1ccc(COCCOCCO[C@@H]2O[C@H](CO)[C@@H](O[C@@H]3O[C@H](CO)[C@H](O)[C@H](O[C@]4(C(=O)O)C[C@H](O)[C@@H](NC(C)=O)[C@H]([C@H](O)[C@H](O)CO)O4)[C@H]3O)[C@H](O[C@@H]3O[C@@H](C)[C@@H](O)[C@@H](O)[C@@H]3O)[C@H]2O)cc1` [Compound 5A, O-(5-acetamido-3,5-dideoxy-D-glycero-α-D-galacto-2-nonulopyranosylonic acid)-(2→3)-O-β-D-galactopyranosyl-(1→4)-[O-α-L-fucopyranosyl-(1→3)-O-β-D-glucopyranosyl]-(1→1)-5-O-para-(2-tetradecylhexadecanoyl)aminobenzyl-3-oxapentane-1,5-diol], the “Amount of HL-60 cancer cells adhered (fluorescence intensity)” value (“Amount of HL-60 cancer cells adhered” below) in test [1] worked out at 22769. For the same compound, the “% Inhibition of adhesion” value was found to be 80.04% in test [1] (HL-60 cells) and 61.9% in test [2] (human normal lymphocytes). Besides, the “Amount of human normal lymphocytes adhered (fluorescence intensity)” value in test [2] amounted to 6882.

For `CCCCCCCCCCCCCCC(CCCCCCCCCCCCCC)C(=O)Nc1ccc(COCCOCCOCCOCCOCCO[C@@H]2O[C@H](CO)[C@@H](O[C@@H]3O[C@H](CO)[C@H](O)[C@H](O[C@]4(C(=O)O)C[C@H](O)[C@@H](NC(C)=O)[C@H]([C@H](O)[C@H](O)CO)O4)[C@H]3O)[C@H](O[C@@H]3O[C@@H](C)[C@@H](O)[C@@H](O)[C@@H]3O)[C@H]2O)cc1` [Compound 5D, O-(5-acetamido-3,5-dideoxy-D-glycero-α-D-galacto-2-nonulopyranosylonic acid)-(2→3)-O-β-D-galactopyranosyl-(1→4)-[O-α-L-fucopyranosyl-(1→3)-O-β-D-glucopyranosyl]-(1→1)-5-O-para-(2-tetradecylhexadecanoyl)aminobenzyl-3,6,9,12-tetraoxatetradecane-1,14-diol], in test [1], the “Amount of HL-60 cancer cells adhered” value is reported as 17405. Moreover, the “Amount of human normal lymphocytes adhered (fluorescence intensity)” value in test [2] is listed as 8817.

Take `CCCCCCCCCCCCCCC(CCCCCCCCCCCCCC)C(=O)Nc1ccc(COCCOCCOCCOCCO[C@@H]2O[C@H](CO)[C@@H](O[C@@H]3O[C@H](CO)[C@H](O)[C@H](O[C@]4(C(=O)O)C[C@H](O)[C@@H](NC(C)=O)[C@H]([C@H](O)[C@H](O)CO)O4)[C@H]3O)[C@H](O[C@@H]3O[C@@H](C)[C@@H](O)[C@@H](O)[C@@H]3O)[C@H]2O)cc1` [Compound 5C, O-(5-acetamido-3,5-dideoxy-D-glycero-α-D-galacto-2-nonulopyranosylonic acid)-(2→3)-O-β-D-galactopyranosyl-(1→4)-[O-α-L-fucopyranosyl-(1→3)-O-β-D-glucopyranosyl]-(1→1)-11-O-para-(2-tetradecylhexadecanoyl)aminobenzyl-3,6,9-trioxaundecane-1,11-diol]: the “Amount of HL-60 cancer cells adhered” value in test [1] amounted to 26907. Also, the “Amount of human normal lymphocytes adhered (fluorescence intensity)” value in test [2] is 10513.

With `CCCCCCCCCCCCCCC(CCCCCCCCCCCCCC)C(=O)Nc1ccc(COCCOCCOCCO[C@@H]2O[C@H](CO)[C@@H](O[C@@H]3O[C@H](CO)[C@H](O)[C@H](O[C@]4(C(=O)O)C[C@H](O)[C@@H](NC(C)=O)[C@H]([C@H](O)[C@H](O)CO)O4)[C@H]3O)[C@H](O[C@@H]3O[C@@H](C)[C@@H](O)[C@@H](O)[C@@H]3O)[C@H]2O)cc1` [Compound 5B, O-(5-acetamido-3,5-dideoxy-D-glycero-α-D-galacto-2-nonulopyranosylonic acid)-(2→3)-O-β-D-galactopyranosyl-(1→4)-[O-α-L-fucopyranosyl-(1→3)-O-β-D-glucopyranosyl]-(1→1)-8-O-para-(2-tetradecylhexadecanoyl)aminobenzyl-3,6-dioxaoctane-1,8-diol], in test [1], the “Amount of HL-60 cancer cells adhered” value stood at 17957. For the same compound, in test [2], the “Amount of human normal lymphocytes adhered (fluorescence intensity)” value was 6993.
